In patent US20240150290A1, “HETEROCYCLIC P2Y14 RECEPTOR ANTAGONISTS” (priority 2021, published 2024):
In brackets after ≈: the same amount, converted by molar mass. Like-named read-outs stand apart in the source and are kept apart here. Marks after values point to notes of the source that are not given here.

Experiments:
[1] = HPLC-based lipophilicity (Log D7.4); conditions: for chromatographic logD: pH 7.4
hP2Y14R = target: T1, hP2Y14R (Homo sapiens, UniProt Q15391); assay: Inhibition of fluorescent antagonist binding in whole hP2Y14R-expressing CHO cells (flow cytometry)
T1 construct: expressed in transfected cells; host or cells: CHO cells
T1 sequence (Q15391 1-338): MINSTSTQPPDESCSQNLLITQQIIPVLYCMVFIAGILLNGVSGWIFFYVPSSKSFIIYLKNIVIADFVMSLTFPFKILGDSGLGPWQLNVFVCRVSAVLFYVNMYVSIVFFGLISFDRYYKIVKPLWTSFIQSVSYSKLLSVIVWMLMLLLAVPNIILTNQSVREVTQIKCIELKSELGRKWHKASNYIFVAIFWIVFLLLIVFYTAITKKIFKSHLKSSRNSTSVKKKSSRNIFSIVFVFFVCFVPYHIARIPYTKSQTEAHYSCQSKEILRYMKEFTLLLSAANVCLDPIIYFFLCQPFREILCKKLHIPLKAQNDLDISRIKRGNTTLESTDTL

hERG ion channel = hERG ion channel (Homo sapiens, UniProt Q12809); assay: hERG ion channel block, patch clamp assay
Chain of hERG ion channel (Q12809 whole entry): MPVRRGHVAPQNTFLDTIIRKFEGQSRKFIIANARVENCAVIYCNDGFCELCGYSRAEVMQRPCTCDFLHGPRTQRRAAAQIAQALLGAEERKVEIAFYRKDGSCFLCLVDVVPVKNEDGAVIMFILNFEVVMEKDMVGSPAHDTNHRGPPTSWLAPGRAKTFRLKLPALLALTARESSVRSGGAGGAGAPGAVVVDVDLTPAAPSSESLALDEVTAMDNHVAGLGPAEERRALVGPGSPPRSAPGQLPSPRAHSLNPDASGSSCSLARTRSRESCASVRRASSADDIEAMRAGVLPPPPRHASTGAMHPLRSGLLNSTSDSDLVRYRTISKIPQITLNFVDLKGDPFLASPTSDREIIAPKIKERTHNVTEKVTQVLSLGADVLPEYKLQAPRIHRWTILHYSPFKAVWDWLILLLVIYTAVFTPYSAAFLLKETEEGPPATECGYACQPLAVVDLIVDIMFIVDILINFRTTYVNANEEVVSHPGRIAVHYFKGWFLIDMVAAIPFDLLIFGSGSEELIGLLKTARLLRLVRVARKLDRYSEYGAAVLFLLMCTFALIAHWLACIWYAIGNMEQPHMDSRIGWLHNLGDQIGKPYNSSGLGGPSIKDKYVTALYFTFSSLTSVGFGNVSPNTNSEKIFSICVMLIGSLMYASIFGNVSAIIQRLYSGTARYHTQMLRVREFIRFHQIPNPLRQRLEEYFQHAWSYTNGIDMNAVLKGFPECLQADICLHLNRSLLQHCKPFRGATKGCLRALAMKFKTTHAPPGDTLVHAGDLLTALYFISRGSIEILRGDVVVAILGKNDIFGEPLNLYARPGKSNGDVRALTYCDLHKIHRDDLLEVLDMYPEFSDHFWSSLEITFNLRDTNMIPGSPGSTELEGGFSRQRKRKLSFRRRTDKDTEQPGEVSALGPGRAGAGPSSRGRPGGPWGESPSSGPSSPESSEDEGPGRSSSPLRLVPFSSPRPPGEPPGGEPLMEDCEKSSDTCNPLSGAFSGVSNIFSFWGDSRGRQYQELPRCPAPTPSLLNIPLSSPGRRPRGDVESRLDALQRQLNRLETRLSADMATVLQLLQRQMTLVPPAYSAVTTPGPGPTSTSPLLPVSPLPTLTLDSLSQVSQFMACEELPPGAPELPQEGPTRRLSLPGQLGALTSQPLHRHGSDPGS

[2] = Aqueous solubility, pION method
mP2Y14R = target: T2, mP2Y14R (Mus musculus, UniProt Q9ESG6); assay: cell-based; conditions: for affinity at the mP2Y14R vs the human homologue: comparison of species, in words
T2 sequence (Q9ESG6 1-338): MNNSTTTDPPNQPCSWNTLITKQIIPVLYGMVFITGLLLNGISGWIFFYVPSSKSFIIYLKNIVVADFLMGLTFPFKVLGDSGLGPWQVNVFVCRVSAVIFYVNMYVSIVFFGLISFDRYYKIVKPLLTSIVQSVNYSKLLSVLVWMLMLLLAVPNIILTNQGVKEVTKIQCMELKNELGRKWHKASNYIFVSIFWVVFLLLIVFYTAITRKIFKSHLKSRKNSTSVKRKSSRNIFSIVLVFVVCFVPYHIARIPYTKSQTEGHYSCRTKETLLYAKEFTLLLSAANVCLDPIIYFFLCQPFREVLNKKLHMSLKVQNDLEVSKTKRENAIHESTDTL
From the text: Desirably, receptor affinity is maintained across species, facilitating performance in in vivo preclinical testing in small animals, with the mouse being the most commonly used species in initial evaluation.

[3] = system: CCI-induced mechano-allodynia; assay: Chronic constriction injury (CCI) mouse model of neuropathic pain; conditions: 10 μmol/kg, i.p., day 7 post-injury
[4] = Table 2, whole hP2Y14R-CHO cells, 20 nM fluorescent antagonist 3, mean+SEM, n = 3-6, read-out: IC50
[5] = read-out: mP2Y14R, IC50, Table 6, whole mP2Y14R-HEK cells, 200 nM of 3, mean ± SEM, n = 3-6
[6] = Table 6, fluorescent hP2Y14R antagonist (3), read-out: hP2Y14R, IC50
[7] = Table 1, fluorescent antagonist 2, hP2Y14R-CHO cells, 3-4 determinations, read-out: IC50, hP2Y14R (μM, mean ± SEM)
[8] = read-out: mP2Y14R, IC50, Table 2, tracer 2 (20 nM, 45 min), HEK293 cells

N[C@H]1C[C@@H](CO)[C@H](c2ccc(-c3cc(C(=O)O)cc4cc(-c5ccc(C(F)(F)F)cc5)ccc34)cc2)C1 [Compound 135, 4-(4-((1R,2R,4R)-4-Amino-2-(hydroxymethyl)cyclopentyl)phenyl)-7-(4-(trifluoromethyl)phenyl)-2-naphthoic acid]
chromatographic logD [1]: 0.957 ± 0.046
IC50 (hP2Y14R; [4]): 0.0126 ± 0.0019 µM
IC50 (hERG ion channel): > 30000 nM
Solubility (ug/mL) pH 4 [2]: 4.97 ± 0.11 ug/mL
Solubility (ug/mL) pH 7.4 [2]: 0.66 ± 0.02 ug/mL

CC(C)(C)OC(=O)NCCCc1ccc(-c2cc(C(=O)O)cc(-n3cc(-c4ccc(C(F)(F)F)cc4)nn3)c2)cc1 [Compound 20, 4′-(3-((tert-Butoxycarbonyl)amino)propyl)-5-(4-(4-(trifluoromethyl)phenyl)-1H-1,2,3-triazol-1-yl)-[1,1′-biphenyl]-3-carboxylic acid]
EC50 (hERG ion channel): 18 µM

N[C@@H]1C[C@H](C(=O)O)[C@@H](c2ccc(-c3cc(C(=O)O)cc4cc(-c5ccc(C(F)(F)F)cc5)ccc34)cc2)C1 [Compound 138, 4-(4-((1S,2S,4S)-4-Amino-2-carboxycyclopentyl)phenyl)-7-(4-(trifluoromethyl)phenyl)-2-naphthoic acid]
IC50 (mP2Y14R; [5]): 40.9 ± 6.3 nM
IC50 (hP2Y14R; [6]): 0.0496 ± 0.0135 µM

O=C(O)c1cc(-c2ccc([C@@H]3C[C@@H]4C[C@H]3CN4)cc2)c2ccc(-c3ccc(C(F)(F)F)cc3)cc2c1 [Compound 115, 4-(4-((1R,4R,5R)-2-Azabicyclo[2.2.1]heptan-5-yl)phenyl)-7-(4-(trifluoromethyl)phenyl)-2-naphthoic acid]
IC50 (hP2Y14R; [4]): 0.00862 ± 0.00211 µM
IC50 (hERG ion channel): > 30000 nM

O=C(O)c1cc(-c2ccc([C@@H]3C[C@@H]4C[C@H]3C(=O)N4)cc2)c2ccc(-c3ccc(C(F)(F)F)cc3)cc2c1 [Compound 120, 4-(4-((1R,4R,5R)-3-Oxo-2-azabicyclo[2.2.1]heptan-5-yl)phenyl)-7-(4-(trifluoromethyl)phenyl)-2-naphthoic acid]
IC50 (mP2Y14R; [5]): 26.2 ± 10.7 nM
IC50 (hP2Y14R; [6]): 0.0395 ± 0.0098 µM
EC50 (hERG ion channel; read-out: (EC50), μM for stimulation of hERG channel activity, patch clamp, Table 8): 18.1 µM
Solubility (ug/mL) pH 4 [2]: 0.31 ± 0.14 ug/mL
Solubility (ug/mL) pH 7.4 [2]: 3.42 ± 0.46 ug/mL

O=C(O)c1cc(-c2ccc([C@]3(O)[C@@H]4CC[C@H]3CNC4)cc2)c2ccc(-c3ccc(C(F)(F)F)cc3)cc2c1 [Compound 131, 4-(4-((1R,5S,8r)-8-Hydroxy-3-azabicyclo[3.2.1]octan-8-yl)phenyl)-7-(4-(trifluoromethyl)phenyl)-2-naphthoic acid]
IC50 (mP2Y14R): 15.5 ± 3.3 nM
chromatographic logD [1]: 1.2 ± 0.01
IC50 (hP2Y14R): 0.0213 ± 0.0011 µM
IC50 (hERG ion channel): > 30000 nM
solubility ([2]; pH 4, aqueous buffer): 2.32 ± 0.25 µg/mL (≈ 4.48 µM)
solubility ([2]; pH 7.4, aqueous buffer): 0.54 ± 0.09 µg/mL (≈ 1.04 µM)

O=C(O)c1cc(-c2ccc(C3C4CCC3CNC4)cc2)c2ccc(-c3ccc(C(F)(F)F)cc3)cc2c1 (stereo not shown) [Compound 129, 4-(4-(3-Azabicyclo[3.2.1]octan-8-yl)phenyl)-7-(4-(trifluoromethyl)phenyl)-2-naphthoic acid]
Log D7.4 ([1]; calculated from retention factor difference between ligands and 1 (k = 3.41)): 2.33 ± 0.09^f
IC50 (hP2Y14R; [4]): 0.0383 ± 0.002 µM
Solubility (ug/mL) pH 4 [2]: 0.38 ± 0.04 ug/mL
Solubility (ug/mL) pH 7.4 [2]: 0.13 ± 0.00 ug/mL

O=C(O)c1cc(-c2ccc(C3C4CCC3CNC4)cc2)c2ccc(-c3ccc(C(F)(F)F)cc3)cc2c1 (stereo not shown) [Compound 133, 4-(4-(3-Azabicyclo[3.2.1]octan-8-yl)phenyl)-7-(4-(trifluoromethyl)phenyl)-2-naphthoic acid]
chromatographic logD [1]: 2.97 ± 0.02
IC50 (hP2Y14R): 0.696 ± 0.1 µM
solubility ([2]; pH 4, aqueous buffer): 0.32 ± 0.01 µg/mL (≈ 0.638 µM)
solubility ([2]; pH 7.4, aqueous buffer): 0.16 ± 0.01 µg/mL (≈ 0.319 µM)

N[C@@H]1C[C@H](CO)[C@@H](c2ccc(-c3cc(C(=O)O)cc4cc(-c5ccc(C(F)(F)F)cc5)ccc34)cc2)C1 [Compound 134, 4-(4-((1S,2S,4S)-4-Amino-2-(hydroxymethyl)cyclopentyl)phenyl)-7-(4-(trifluoromethyl)phenyl)-2-naphthoic acid]
IC50 (mP2Y14R; [5]): 17.9 ± 2.6 nM
IC50 (hP2Y14R; [6]): 0.0108 ± 0.0021 µM
IC50 (hERG ion channel): > 30000 nM

CC(=O)N1C[C@H]2C[C@@H]1C[C@@H]2c1ccc(-c2cc(C(=O)O)cc3cc(-c4ccc(C(F)(F)F)cc4)ccc23)cc1 [Compound 118, 4-(4-((1S,4S,5S)-2-Acetyl-2-azabicyclo[2.2.1]heptan-5-yl)phenyl)-7-(4-(trifluoromethyl)phenyl)-2-naphthoic acid]
IC50 (mP2Y14R; [5]): 102 ± 39 nM
chromatographic logD [1]: 0.921 ± 0.034
IC50 (hP2Y14R; [6]): 0.107 ± 0.013 µM
Solubility (ug/mL) pH 7.4 [2]: 1.86 ± 0.05 ug/mL

NCCCNC(=O)c1ccc(-c2cc(C(=O)O)cc(-n3cc(-c4ccc(C(F)(F)F)cc4)nn3)c2)cc1 [Compound 14, 4′-((3-Aminopropyl)carbamoyl)-5-(4-(4-(trifluoromethyl)phenyl)-1H-1,2,3-triazol-1-yl)-[1,1′-biphenyl]-3-carboxylic acid]
reversal of mechano-allodynia (figure legend) [3]: reversal of established mechano-allodynia
IC50 (hP2Y14R; [7]): 0.588 ± 0.043 µM

O=C(O)c1cc(-c2ccc([C@@]34CCNC[C@@H]3C4)cc2)c2ccc(-c3ccc(C(F)(F)F)cc3)cc2c1 (racemic) [Compound 108, 4-(4-(3-Azabicyclo[4.1.0]heptan-6-yl)phenyl)-7-(4-(trifluoromethyl)phenyl)-2-naphthoic acid]
chromatographic logD [1]: 2.44 ± 0.06
IC50 (hP2Y14R): 0.0455 ± 0.0072 µM
solubility ([2]; pH 4, aqueous buffer): 1.32 ± 0.17 µg/mL (≈ 2.71 µM)
solubility ([2]; pH 7.4, aqueous buffer): 0.17 ± 0.01 µg/mL (≈ 0.349 µM)

O=C(O)c1cc(-c2ccc([C@@H]3CCN[C@@H]4C[C@@H]43)cc2)c2ccc(-c3ccc(C(F)(F)F)cc3)cc2c1 (racemic) [Compound 111, rac-4-(4-((1R,5R,6R)-2-Azabicyclo[4.1.0]heptan-5-yl)phenyl)-7-(4-(trifluoromethyl)phenyl)-2-naphthoic acid]
chromatographic logD [1]: 1.75 ± 0.06
IC50 (hP2Y14R): 0.0618 ± 0.0141 µM
Solubility (ug/mL) pH 4 [2]: 0.24 ± 0.02 ug/mL
solubility ([2]; pH 7.4, aqueous buffer): 0.05 ± 0.04 µg/mL (≈ 0.103 µM)

NCC#Cc1ccc(-c2cc(C(=O)O)cc(-n3cc(-c4ccc(C(F)(F)F)cc4)nn3)c2)cc1 [Compound 19, 4′-(3-Aminoprop-1-yn-1-yl)-5-(4-(4-(trifluoromethyl)phenyl)-1H-1,2,3-triazol-1-yl)-[1,1′-biphenyl]-3-carboxylic acid]
affinity at the mP2Y14R vs the human homologue (mP2Y14R): nearly the same affinity in the two species
IC50 (mP2Y14R; [8]): 375 ± 175 nM
IC50 (hP2Y14R; [7]): 0.308 ± 0.063 µM

O=C(O)c1cc(-c2ccc([C@@H]3C[C@H]4CN[C@@H]3C4)cc2)c2ccc(-c3ccc(C(F)(F)F)cc3)cc2c1 [Compound 116, 4-(4-((1R,4R,6S)-2-Azabicyclo[2.2.1]heptan-6-yl)phenyl)-7-(4-(trifluoromethyl)phenyl)-2-naphthoic acid]
chromatographic logD [1]: 2.11 ± 0.06
IC50 (hP2Y14R; [4]): 0.0098 ± 0.0003 µM
IC50 (hERG ion channel): > 30000 nM
Solubility (ug/mL) pH 4 [2]: 1.45 ± 0.05 ug/mL
Solubility (ug/mL) pH 7.4 [2]: 0.40 ± 0.13 ug/mL

N[C@H]1C[C@@H](C(=O)O)[C@H](c2ccc(-c3cc(C(=O)O)cc4cc(-c5ccc(C(F)(F)F)cc5)ccc34)cc2)C1 [Compound 139, 4-(4-((1R,2R,4R)-4-Amino-2-carboxycyclopentyl)phenyl)-7-(4-(trifluoromethyl)phenyl)-2-naphthoic acid]
Log D7.4 ([1]; HPLC-based lipophilicity): −0.568 ± 0.038
IC50 (hP2Y14R; [4]): 0.102 ± 0.025 µM
Solubility (ug/mL) pH 4 [2]: 1.05 ± 0.20 ug/mL
Solubility (ug/mL) pH 7.4 [2]: 5.52 ± 0.21 ug/mL

O=C(O)c1cc(-c2ccc(-c3cc(CO)on3)cc2)cc(-n2cc(-c3ccc(C(F)(F)F)cc3)nn2)c1 [Compound 29, 4′-(5-(Hydroxymethyl)isoxazol-3-yl)-5-(4-(4-(trifluoromethyl)phenyl)-1H-1,2,3-triazol-1-yl)-[1,1′-biphenyl]-3-carboxylic acid]
affinity at the mP2Y14R vs the human homologue (mP2Y14R): slightly enhanced affinity
IC50 (mP2Y14R; [8]): 184 ± 24 nM
IC50 (hP2Y14R; Table 2, tracer 2 (20 nM, 45 min), CHO cells, read-out: hP2Y14R, IC50): 0.296 ± 0.013 µM
